Results from the supplement of paper PMC4862054.
Each block holds one molecule with its values, some of them ahead of it.

How the values were obtained:
Conditions in all cases: 72 h
Hs578T [1] = system: Hs578T
Description: (§1)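 Drug sensitivity and resistance testing (DSRT) of breast cancer cell lines in 384-well plates, 5 concentrations in 10-fold dilutions over a compound-specific 10,000-fold range. After 72 h, cytotoxicity was read by CellTox Green fluorescence and viability by CellTiter-Glo luminescence (multiplexed), normalised to DMSO and benzethonium chloride controls. EC50 is the inflection point of the fitted dose-response curve (bottom asymptote free, so it can be relative for partial curves) and is censored at the highest tested concentration. Rows with DSS 0 (no meaningful response) were excluded.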

MDA-MB-231 [2] = system: MDA-MB-231
Description: as §1

CAL-85-1 [3] = system: CAL-85-1
Description: as §1

BT-549 [4] = system: BT-549
Description: as §1

HCC1937 [5] = system: HCC1937
In short: (§2)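 Seeding of breast cancer cell lines (20 µl suspension) was done into 384-well plates pre-loaded with compound at 5 concentrations, 10-fold apart, covering a compound-specific 10,000-fold range. The plates were incubated for 72 h, read for CellTox Green fluorescence (485/520 nm), and then read for CellTiter-Glo luminescence after 10 min at room temperature. Every plate was normalised to 0.1 % DMSO and a positive kill control. Curve fitting gave the EC50, censored at the top concentration.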

Hs578T [6] = system: Hs578T; remark: listed apart in the source
In short: as §2

MDA-MB-231 [7] = system: MDA-MB-231; remark: listed apart in the source
In short: as §2

SK-BR-3 [8] = system: SK-BR-3
In short: as §2

CAL-85-1 [9] = system: CAL-85-1; remark: listed apart in the source
In short: as §2

MFM-223 [10] = system: MFM-223
In short: as §2

MCF-10A [11] = system: MCF-10A
In short: as §2

BT-474 [12] = system: BT-474
In short: as §2

HCC1143 [13] = system: HCC1143
In short: as §2

BT-549 [14] = system: BT-549; remark: listed apart in the source
In short: as §2

CAL-120 [15] = system: CAL-120
In short: as §2

HDQ-P1 [16] = system: HDQ-P1
In short: as §2

HCC1599 [17] = system: HCC1599
Description: as §1

MFM-223 [18] = system: MFM-223; remark: listed apart in the source
Description: as §1

MDA-MB-453 [19] = system: MDA-MB-453
Description: as §1

BT-474 [20] = system: BT-474; remark: listed apart in the source
Description: as §1

HCC1599 [21] = system: HCC1599; remark: listed apart in the source
In short: as §2

MDA-MB-453 [22] = system: MDA-MB-453; remark: listed apart in the source
In short: as §2

CAL-148 [23] = system: CAL-148
In short: as §2

MDA-MB-468 [24] = system: MDA-MB-468
In short: as §2

MDA-MB-436 [25] = system: MDA-MB-436
In short: as §2

DU-4475 [26] = system: DU-4475
In short: as §2

CAL-51 [27] = system: CAL-51
In short: (§3)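 Plates of 384 wells holding compound in 5 µl medium received breast cancer cell lines in 20 µl suspension and were incubated 72 h. CellTiter-Blue (2.5 µl, 2 h, 37 °C) was used for viability, read at 560/590 nm, and every plate was normalised to vehicle and a positive kill control and assessed by Z'-factor. The EC50 derives from a percent-inhibition dose-response curve fit censored at the highest concentration, leaving out rows whose drug sensitivity score was zero.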

DU-4475 [28] = system: DU-4475; remark: listed apart in the source
In short: as §3

MDA-MB-436 [29] = system: MDA-MB-436; remark: listed apart in the source
Description: as §1

HCC1937 [30] = system: HCC1937; remark: listed apart in the source
In short: as §3

MDA-MB-468 [31] = system: MDA-MB-468; remark: listed apart in the source
In short: as §3

CAL-51 [32] = system: CAL-51; remark: listed apart in the source
In short: as §2

CAL-120 [33] = system: CAL-120; remark: listed apart in the source
Description: as §1

CAL-85-1 [34] = system: CAL-85-1; remark: listed apart in the source
In short: as §3

MDA-MB-453 [35] = system: MDA-MB-453; remark: listed apart in the source
In short: as §3

CAL-148 [36] = system: CAL-148; remark: listed apart in the source
In short: as §3

HDQ-P1 [37] = system: HDQ-P1; remark: listed apart in the source
In short: as §3

HCC1937 [38] = system: HCC1937; remark: listed apart in the source
Description: as §1

MCF-10A [39] = system: MCF-10A; remark: listed apart in the source
Description: as §1

HCC1143 [40] = system: HCC1143; remark: listed apart in the source
Description: as §1

HDQ-P1 [41] = system: HDQ-P1; remark: listed apart in the source
Description: as §1

Hs578T [42] = system: Hs578T; remark: listed apart in the source
In short: as §3

MDA-MB-231 [43] = system: MDA-MB-231; remark: listed apart in the source
In short: as §3

SK-BR-3 [44] = system: SK-BR-3; remark: listed apart in the source
In short: as §3

MFM-223 [45] = system: MFM-223; remark: listed apart in the source
In short: as §3

BT-474 [46] = system: BT-474; remark: listed apart in the source
In short: as §3

HCC1143 [47] = system: HCC1143; remark: listed apart in the source
In short: as §3

BT-549 [48] = system: BT-549; remark: listed apart in the source
In short: as §3

CAL-120 [49] = system: CAL-120; remark: listed apart in the source
In short: as §3

Structure (SMILES): COc1cc(Nc2ncc(F)c(Nc3ccc4c(n3)N(COP(=O)(O)O)C(=O)C(C)(C)O4)n2)cc(OC)c1OC [Fostamatinib]
EC50, CellTox Green (Hs578T [1]): 1080 nM
EC50, CellTox Green (MDA-MB-231 [2]): 267 nM
EC50, CellTox Green (CAL-85-1 [3]): 725 nM
EC50, CellTox Green (BT-549 [4]): 1.6 nM
EC50, CellTiter-Glo (HCC1937 [5]): > 2500 nM
EC50, CellTiter-Glo (Hs578T [6]): 938 nM
EC50, CellTiter-Glo (MDA-MB-231 [7]): 452 nM
EC50, CellTiter-Glo (SK-BR-3 [8]): > 2500 nM
EC50, CellTiter-Glo (CAL-85-1 [9]): 1560 nM
EC50, CellTiter-Glo (MFM-223 [10]): 222 nM
EC50, CellTiter-Glo (MCF-10A [11]): 451 nM
EC50, CellTiter-Glo (BT-474 [12]): 1160 nM
EC50, CellTiter-Glo (HCC1143 [13]): 530 nM
EC50, CellTiter-Glo (BT-549 [14]): 599 nM
EC50, CellTiter-Glo (CAL-120 [15]): 405 nM
EC50, CellTiter-Glo (HDQ-P1 [16]): 1660 nM

Structure (SMILES): C[C@]12C=CC(=O)C=C1CC[C@@H]1[C@@H]2C(=O)C[C@@]2(C)[C@H]1CC[C@]2(O)C(=O)CO [Prednisone]
EC50, CellTox Green (CAL-120 [33]): 1000 nM
EC50, CellTiter-Glo (CAL-120 [15]): 8390 nM

Structure (SMILES): CC[C@@H]1C(=O)N(C)c2cnc(Nc3ccc(C(=O)N[C@H]4CC[C@H](N5CCN(CC6CC6)CC5)CC4)cc3OC)nc2N1C(C)C [Volasertib]
EC50, CellTiter-Blue viability (CAL-85-1 [34]): 10.4 nM
EC50, CellTiter-Blue viability (MDA-MB-453 [35]): 6.23 nM
EC50, CellTiter-Blue viability (CAL-148 [36]): 11.6 nM
EC50, CellTiter-Blue viability (CAL-51 [27]): 24.8 nM
EC50, CellTiter-Blue viability (HDQ-P1 [37]): 379 nM
EC50, CellTiter-Blue viability (DU-4475 [28]): 24.7 nM
EC50, CellTox Green (HCC1937 [38]): 0.49 nM
EC50, CellTox Green (Hs578T [1]): 120 nM
EC50, CellTox Green (MDA-MB-231 [2]): 3.18 nM
EC50, CellTox Green (CAL-85-1 [3]): 3.2 nM
EC50, CellTox Green (MFM-223 [18]): 0.83 nM
EC50, CellTox Green (MCF-10A [39]): 2.53 nM
EC50, CellTox Green (HCC1143 [40]): 49.1 nM
EC50, CellTox Green (BT-549 [4]): 68.5 nM
EC50, CellTox Green (HDQ-P1 [41]): 17.9 nM
EC50, CellTiter-Blue viability (HCC1937 [30]): 11.1 nM
EC50, CellTiter-Blue viability (Hs578T [42]): 36.8 nM
EC50, CellTiter-Blue viability (MDA-MB-231 [43]): 20.4 nM
EC50, CellTiter-Blue viability (SK-BR-3 [44]): 8.58 nM
EC50, CellTiter-Blue viability (MFM-223 [45]): 1.6 nM
EC50, CellTiter-Blue viability (BT-474 [46]): > 1000 nM
EC50, CellTiter-Blue viability (HCC1143 [47]): 13.8 nM
EC50, CellTiter-Blue viability (BT-549 [48]): 23.5 nM
EC50, CellTiter-Blue viability (MDA-MB-468 [31]): 13.7 nM
EC50, CellTiter-Blue viability (CAL-120 [49]): 5.21 nM
EC50, CellTiter-Glo (HCC1599 [21]): 64.5 nM
EC50, CellTiter-Glo (HCC1937 [5]): 82.3 nM
EC50, CellTiter-Glo (Hs578T [6]): 76.9 nM
EC50, CellTiter-Glo (MDA-MB-231 [7]): 9.75 nM
EC50, CellTiter-Glo (SK-BR-3 [8]): 8.82 nM
EC50, CellTiter-Glo (CAL-85-1 [9]): 8.51 nM
EC50, CellTiter-Glo (MFM-223 [10]): 4.62 nM
EC50, CellTiter-Glo (MCF-10A [11]): 33.2 nM
EC50, CellTiter-Glo (MDA-MB-453 [22]): 0.7 nM
EC50, CellTiter-Glo (BT-474 [12]): 7.02 nM
EC50, CellTiter-Glo (HCC1143 [13]): 22.5 nM
EC50, CellTiter-Glo (CAL-148 [23]): 8.07 nM
EC50, CellTiter-Glo (BT-549 [14]): 20.4 nM
EC50, CellTiter-Glo (CAL-51 [32]): 16.9 nM
EC50, CellTiter-Glo (MDA-MB-468 [24]): 6.98 nM
EC50, CellTiter-Glo (CAL-120 [15]): 46.6 nM
EC50, CellTiter-Glo (MDA-MB-436 [25]): 3.59 nM
EC50, CellTiter-Glo (HDQ-P1 [16]): 53.1 nM
EC50, CellTiter-Glo (DU-4475 [26]): 25.4 nM

Further lines, with some results ahead:

EC50, CellTiter-Glo (HCC1599 [21]): 5170 nM
EC50, CellTiter-Glo (MDA-MB-231 [7]): 3820 nM
EC50, CellTiter-Glo (SK-BR-3 [8]): 2750 nM
EC50, CellTiter-Glo (MDA-MB-453 [22]): 2690 nM
EC50, CellTiter-Glo (BT-474 [12]): 4570 nM
EC50, CellTiter-Glo (BT-549 [14]): 3210 nM
EC50, CellTiter-Glo (MDA-MB-468 [24]): 2980 nM
EC50, CellTiter-Glo (MDA-MB-436 [25]): 5170 nM
Structure (SMILES): CCCc1cc(C)[nH]c(=O)c1CNC(=O)c1cc(-c2ccnc(N3CCN(C)CC3)c2)cc2c1cnn2C(C)C [GSK343]
EC50, CellTox Green (HCC1599 [17]): > 10000 nM
EC50, CellTox Green (MDA-MB-231 [2]): 2280 nM
EC50, CellTox Green (CAL-85-1 [3]): 3440 nM
EC50, CellTox Green (MFM-223 [18]): 227 nM
EC50, CellTox Green (MDA-MB-453 [19]): 2680 nM
EC50, CellTox Green (BT-474 [20]): 3370 nM
EC50, CellTiter-Glo (CAL-85-1 [9]): 7160 nM
EC50, CellTiter-Glo (MFM-223 [10]): 7400 nM
EC50, CellTiter-Glo (CAL-148 [23]): 1860 nM
EC50, CellTiter-Glo (DU-4475 [26]): 2380 nM

EC50, CellTiter-Blue viability (HCC1937 [30]): 116 nM
EC50, CellTiter-Blue viability (MDA-MB-468 [31]): 1610 nM
EC50, CellTiter-Glo (BT-549 [14]): 4140 nM
EC50, CellTiter-Glo (MDA-MB-468 [24]): 1510 nM
EC50, CellTiter-Glo (MDA-MB-436 [25]): 1040 nM
Structure (SMILES): O=C(c1cc(Cc2n[nH]c(=O)c3ccccc23)ccc1F)N1CCN(C(=O)C2CC2)CC1 [Olaparib]
EC50, CellTiter-Blue viability (CAL-51 [27]): 6590 nM
EC50, CellTiter-Blue viability (DU-4475 [28]): 418 nM
EC50, CellTox Green (MDA-MB-436 [29]): 498 nM
EC50, CellTiter-Glo (CAL-148 [23]): 1200 nM
EC50, CellTiter-Glo (CAL-51 [32]): 45.4 nM
EC50, CellTiter-Glo (CAL-120 [15]): > 10000 nM
